Where no end group is shown, it is not given here.
System: subjects with bilateral patello-femoral knee osteoarthritis
Assay: Randomized double-blind placebo-controlled clinical study, safety and tolerability
Assay type: in vivo, human
Method: A multicenter, randomized double-blind, placebo controlled study was designed to investigate the safety, tolerability, pharmacokinetics, and efficacy of TPX-100 administered in four weekly doses in subjects with bilateral patello-femoral knee osteoarthritis. The study was conducted under an open IND (investigational new drug application) at CDER (Center for Drug Evaluation and Research) of the U.S. FDA (The United States Food and Drug Administration) in compliance with GCP (Good Clinical Practice) and ICH (International Conference on Harmonization of Technical Requirements for Registration of Pharmaceuticals for Human Use) guidelines. Eighteen (18) orthopedic, rheumatologic and family practice centers in the U.S. participated in the study.
The study was divided into Part A and Part B. The Part A was to evaluate safety of intra-articular (I.A.) administration of TPX-100 at different dosing levels (20, 50, 100, or 200mg per injection in sequential cohorts) in the subjects with osteoarthritis of the knees and to select a dose adopted for the Part B. The Part B was to evaluate safety and efficacy of the selected dose of TPX-100.
Subjects in Part A enrolled in sequential cohorts were randomized to receive 20, 50, 100 or 200 mg of TPX-100 in one knee and identical placebo in the contralateral knee. Active and placebo assignments were randomized, with subject, site, and sponsor blinded as to treatment assignment. A Safety Review Committee (SRC) evaluated safety in each dosing cohort. The SRC assessed safety and dose-limiting toxicities, if evident, and determined whether the next higher dosing regimen might be enrolled. Part A were completed and analyzed with regard to safety prior to dose selection and initiation of Part B. […]
The 200mg dose was selected for Part B based on review and approval by the SRC. […] The combined final number of the subjects that were analyzed for the drug efficacy for 200mg dose of TPX-100 was 93.
On the first dosing day, the randomized subjects were assessed for their general health conditions by physical examinations and vital signs. […] Subjects were monitored for adverse events during the injections and for a few hours after the injections. Vital signs were also monitored after the injections.
Subjects returned to their respective study sites at 3, 6 and 12 months after the first dosing day for follow-up evaluations. In addition, the study sites monitored the subject's condition through telephone contact 9 months after the first dosing day. During the 3, 6, and 12 months post-treatment follow-up on-site visits, subjects were evaluated by physical examination, vital signs, serum chemistry, as well as KOOS. Adverse events and concomitant medications were also recorded. […]

Substance: TDLQERGDNDISPFSGDGQPFKD-NH2 [TPX-100]
- dose-limiting toxicities (Part A, 20, 50, 100 and 200 mg per injection, four weekly intra-articular injections): no dose-limiting toxicities
- severe adverse events (throughout the study period): no severe adverse events likely or possibly related to the drug treatment
- treatment-related adverse events (throughout the study period): mild or moderate, transient
- safety and tolerability (throughout the study period (12 months)): safe and well tolerated
